According to PubChem BioAssay (NCI):
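Step 1: Grow cells in 96-well plates. Step 2: Expose to compound for 48 hours at 5 concentrations. Step 3: Interpolate endpoints linearly; if unreached, use highest concentration. Definition used: TGI = concentration required for complete inhibition of growth.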

How the values were obtained:
Experiment in all cases: NCI anticancer screen, dose series, 48 h
786-0 renal = tested on: 786-0 renal
A498 renal = tested on: A498 renal
A549 NSCLC = tested on: A549 NSCLC
ACHN renal = tested on: ACHN renal
BT-549 breast = tested on: BT-549 breast
CAKI-1 renal = tested on: CAKI-1 renal
CCRF-CEM leukemia = tested on: CCRF-CEM leukemia
COLO 205 colon = tested on: COLO 205 colon
DU-145 prostate = tested on: DU-145 prostate
EKVX NSCLC = tested on: EKVX NSCLC
HCC-2998 colon = tested on: HCC-2998 colon
HCT-116 colon = tested on: HCT-116 colon
HCT-15 colon = tested on: HCT-15 colon
HL-60(TB) leukemia = tested on: HL-60(TB) leukemia
HOP-62 NSCLC = tested on: HOP-62 NSCLC
HOP-92 NSCLC = tested on: HOP-92 NSCLC
HS 578T breast = tested on: HS 578T breast
HT29 colon = tested on: HT29 colon
IGROV1 ovarian = tested on: IGROV1 ovarian
K-562 leukemia = tested on: K-562 leukemia
KM12 colon = tested on: KM12 colon
LOX IMVI melanoma = tested on: LOX IMVI melanoma
M14 melanoma = tested on: M14 melanoma
MALME-3M melanoma = tested on: MALME-3M melanoma
MCF7 breast = tested on: MCF7 breast
MDA-MB-231 breast = tested on: MDA-MB-231 breast
MDA-MB-435 = tested on: MDA-MB-435
MDA-N = tested on: MDA-N
MOLT-4 leukemia = tested on: MOLT-4 leukemia
NCI-H226 lung = tested on: NCI-H226 lung
NCI-H23 lung = tested on: NCI-H23 lung
NCI-H460 lung = tested on: NCI-H460 lung
NCI-H522 lung = tested on: NCI-H522 lung
NCI/ADR-RES ovarian = tested on: NCI/ADR-RES ovarian
OVCAR-3 ovarian = tested on: OVCAR-3 ovarian
OVCAR-4 ovarian = tested on: OVCAR-4 ovarian
OVCAR-5 ovarian = tested on: OVCAR-5 ovarian
OVCAR-8 ovarian = tested on: OVCAR-8 ovarian
PC-3 prostate = tested on: PC-3 prostate
RPMI-8226 leukemia = tested on: RPMI-8226 leukemia
RXF 393 renal = tested on: RXF 393 renal
SF-268 CNS = tested on: SF-268 CNS
SF-295 CNS = tested on: SF-295 CNS
SF-539 CNS = tested on: SF-539 CNS
SK-MEL-2 melanoma = tested on: SK-MEL-2 melanoma
SK-MEL-28 melanoma = tested on: SK-MEL-28 melanoma
SK-MEL-5 melanoma = tested on: SK-MEL-5 melanoma
SK-OV-3 ovarian = tested on: SK-OV-3 ovarian
SN12C renal = tested on: SN12C renal
SNB-19 CNS = tested on: SNB-19 CNS
SNB-75 CNS = tested on: SNB-75 CNS
SR leukemia = tested on: SR leukemia
SW-620 colon = tested on: SW-620 colon
T-47D breast = tested on: T-47D breast
TK-10 renal = tested on: TK-10 renal
U251 CNS = tested on: U251 CNS
UACC-257 melanoma = tested on: UACC-257 melanoma
UACC-62 melanoma = tested on: UACC-62 melanoma
UO-31 renal = tested on: UO-31 renal

## COc1cc2c3cc1Oc1c(O)c(OC)cc4c1[C@H](Cc1ccc(cc1)Oc1cc(ccc1O)C[C@H]3N(C)CC2)N(C)CC4
786-0 renal
  TGI: 21.7 µM
A498 renal
  TGI: 31.5 µM
A549 NSCLC
  TGI: 39.6 µM
ACHN renal
  TGI: 61 µM
BT-549 breast
  TGI: 28.4 µM
CAKI-1 renal
  TGI: 86.3 µM
CCRF-CEM leukemia
  TGI: 42.7 µM
COLO 205 colon
  TGI: 28.5 µM
DU-145 prostate
  TGI: 37.5 µM
EKVX NSCLC
  TGI: 48.1 µM
HCC-2998 colon
  TGI: 22.8 µM
HCT-116 colon
  TGI: 22.4 µM
HCT-15 colon
  TGI: 59.5 µM
HL-60(TB) leukemia
  TGI: 33.9 µM
HOP-62 NSCLC
  TGI: 43.8 µM
HOP-92 NSCLC
  TGI: 39.4 µM
HS 578T breast
  TGI: 64.9 µM
HT29 colon
  TGI: 18.5 µM
IGROV1 ovarian
  TGI: 36.1 µM
K-562 leukemia
  TGI: 17.6 µM
KM12 colon
  TGI: 23.7 µM
LOX IMVI melanoma
  TGI: 17.8 µM
M14 melanoma
  TGI: 5.62 µM
MALME-3M melanoma
  TGI: 36.8 µM
MCF7 breast
  TGI: 44.4 µM
MDA-MB-231 breast
  TGI: 22.8 µM
MDA-MB-435
  TGI: 27.1 µM
MDA-N
  TGI: 24.7 µM
MOLT-4 leukemia
  TGI: > 43.8 µM
NCI-H226 lung
  TGI: 58.8 µM
NCI-H23 lung
  TGI: 51.8 µM
NCI-H460 lung
  TGI: 26.8 µM
NCI-H522 lung
  TGI: 27 µM
NCI/ADR-RES ovarian
  TGI: 78.4 µM
OVCAR-3 ovarian
  TGI: 28.5 µM
OVCAR-4 ovarian
  TGI: 48 µM
OVCAR-5 ovarian
  TGI: 58.6 µM
OVCAR-8 ovarian
  TGI: 37.3 µM
PC-3 prostate
  TGI: 27.1 µM
RPMI-8226 leukemia
  TGI: 20 µM
RXF 393 renal
  TGI: 13.9 µM
SF-268 CNS
  TGI: 47.3 µM
SF-295 CNS
  TGI: 31.3 µM
SF-539 CNS
  TGI: 10.9 µM
SK-MEL-2 melanoma
  TGI: 25.6 µM
SK-MEL-28 melanoma
  TGI: 39.2 µM
SK-MEL-5 melanoma
  TGI: 16.6 µM
SK-OV-3 ovarian
  TGI: 79.3 µM
SN12C renal
  TGI: 34.6 µM
SNB-19 CNS
  TGI: 55.1 µM
SNB-75 CNS
  TGI: 43 µM
SR leukemia
  TGI: 9.15 µM
SW-620 colon
  TGI: 57.3 µM
T-47D breast
  TGI: 46.1 µM
TK-10 renal
  TGI: 48.6 µM
U251 CNS
  TGI: 28 µM
UACC-257 melanoma
  TGI: 33.9 µM
UACC-62 melanoma
  TGI: 33.4 µM
UO-31 renal
  TGI: 44.8 µM

## CC(C)(CO)CNc1cc(=O)[nH]c(N)n1
786-0 renal
  TGI: > 100 µM
A498 renal
  TGI: > 100 µM
A549 NSCLC
  TGI: > 100 µM
ACHN renal
  TGI: > 100 µM
BT-549 breast
  TGI: > 100 µM
CAKI-1 renal
  TGI: > 100 µM
CCRF-CEM leukemia
  TGI: > 100 µM
COLO 205 colon
  TGI: > 100 µM
DU-145 prostate
  TGI: > 100 µM
EKVX NSCLC
  TGI: > 100 µM
HCC-2998 colon
  TGI: > 100 µM
HCT-116 colon
  TGI: > 100 µM
HCT-15 colon
  TGI: > 100 µM
HL-60(TB) leukemia
  TGI: > 100 µM
HOP-62 NSCLC
  TGI: > 100 µM
HOP-92 NSCLC
  TGI: > 100 µM
HS 578T breast
  TGI: > 100 µM
HT29 colon
  TGI: > 100 µM
IGROV1 ovarian
  TGI: > 100 µM
K-562 leukemia
  TGI: > 100 µM
KM12 colon
  TGI: > 100 µM
LOX IMVI melanoma
  TGI: > 100 µM
M14 melanoma
  TGI: > 100 µM
MALME-3M melanoma
  TGI: > 100 µM
MCF7 breast
  TGI: > 100 µM
MDA-MB-231 breast
  TGI: > 100 µM
MDA-MB-435
  TGI: > 100 µM
MDA-N
  TGI: > 100 µM
MOLT-4 leukemia
  TGI: > 100 µM
NCI-H226 lung
  TGI: > 100 µM
NCI-H23 lung
  TGI: > 100 µM
NCI-H460 lung
  TGI: > 100 µM
NCI-H522 lung
  TGI: > 100 µM
NCI/ADR-RES ovarian
  TGI: > 100 µM
OVCAR-3 ovarian
  TGI: > 100 µM
OVCAR-4 ovarian
  TGI: > 100 µM
OVCAR-5 ovarian
  TGI: > 100 µM
OVCAR-8 ovarian
  TGI: > 100 µM
PC-3 prostate
  TGI: > 100 µM
RPMI-8226 leukemia
  TGI: > 100 µM
RXF 393 renal
  TGI: > 100 µM
SF-268 CNS
  TGI: > 100 µM
SF-295 CNS
  TGI: > 100 µM
SK-MEL-2 melanoma
  TGI: > 100 µM
SK-MEL-28 melanoma
  TGI: > 100 µM
SK-MEL-5 melanoma
  TGI: > 100 µM
SK-OV-3 ovarian
  TGI: > 100 µM
SN12C renal
  TGI: > 100 µM
SNB-19 CNS
  TGI: > 100 µM
SNB-75 CNS
  TGI: > 100 µM
SR leukemia
  TGI: > 100 µM
SW-620 colon
  TGI: > 100 µM
T-47D breast
  TGI: > 100 µM
U251 CNS
  TGI: > 100 µM
UACC-257 melanoma
  TGI: > 100 µM
UACC-62 melanoma
  TGI: > 100 µM
UO-31 renal
  TGI: > 100 µM

## COC(=O)c1cc(C)ccc1CC(Cc1cccc(C)c1)C(=O)OC (centres undefined)
786-0 renal
  TGI: > 100 µM
A498 renal
  TGI: > 100 µM
A549 NSCLC
  TGI: > 100 µM
ACHN renal
  TGI: > 100 µM
BT-549 breast
  TGI: > 100 µM
CAKI-1 renal
  TGI: > 100 µM
CCRF-CEM leukemia
  TGI: > 100 µM
COLO 205 colon
  TGI: > 100 µM
DU-145 prostate
  TGI: > 100 µM
EKVX NSCLC
  TGI: > 100 µM
HCC-2998 colon
  TGI: > 100 µM
HCT-116 colon
  TGI: > 100 µM
HCT-15 colon
  TGI: > 100 µM
HL-60(TB) leukemia
  TGI: > 100 µM
HOP-62 NSCLC
  TGI: > 100 µM
HOP-92 NSCLC
  TGI: > 100 µM
HS 578T breast
  TGI: > 100 µM
HT29 colon
  TGI: > 100 µM
IGROV1 ovarian
  TGI: > 100 µM
K-562 leukemia
  TGI: > 100 µM
KM12 colon
  TGI: > 100 µM
LOX IMVI melanoma
  TGI: > 100 µM
M14 melanoma
  TGI: > 100 µM
MALME-3M melanoma
  TGI: > 100 µM
MCF7 breast
  TGI: > 100 µM
MDA-MB-231 breast
  TGI: > 100 µM
MDA-MB-435
  TGI: > 100 µM
MDA-N
  TGI: > 100 µM
MOLT-4 leukemia
  TGI: > 100 µM
NCI-H226 lung
  TGI: > 100 µM
NCI-H23 lung
  TGI: > 100 µM
NCI-H460 lung
  TGI: > 100 µM
NCI-H522 lung
  TGI: > 100 µM
NCI/ADR-RES ovarian
  TGI: > 100 µM
OVCAR-3 ovarian
  TGI: > 100 µM
OVCAR-4 ovarian
  TGI: > 100 µM
OVCAR-5 ovarian
  TGI: > 100 µM
OVCAR-8 ovarian
  TGI: > 100 µM
PC-3 prostate
  TGI: > 100 µM
RPMI-8226 leukemia
  TGI: > 100 µM
RXF 393 renal
  TGI: 73.6 µM
SF-268 CNS
  TGI: 53.9 µM
SF-295 CNS
  TGI: > 100 µM
SF-539 CNS
  TGI: > 100 µM
SK-MEL-2 melanoma
  TGI: > 100 µM
SK-MEL-28 melanoma
  TGI: > 100 µM
SK-MEL-5 melanoma
  TGI: > 100 µM
SK-OV-3 ovarian
  TGI: 27.1 µM
SN12C renal
  TGI: > 100 µM
SNB-19 CNS
  TGI: > 100 µM
SNB-75 CNS
  TGI: > 100 µM
SR leukemia
  TGI: > 100 µM
SW-620 colon
  TGI: > 100 µM
T-47D breast
  TGI: > 100 µM
TK-10 renal
  TGI: > 100 µM
U251 CNS
  TGI: > 100 µM
UACC-257 melanoma
  TGI: > 100 µM
UO-31 renal
  TGI: > 100 µM
